Source: the supplement of paper PMC13380429

Legend:
Conditions in all cases: 72 h
HepG2 [1] = assay: relative viability EC50 (midpoint between 100% and the lowest measured viability); higher = less toxic
Calu-3 [2] = assay: as above
U2OS [3] = assay: as above
Caco-2 [4] = assay: as above
Vero E6 [5] = assay: as above
HepG2 [6] = assay: cell viability relative to DMSO; higher = less toxic
Calu-3 [7] = assay: as above
U2OS [8] = assay: as above
Caco-2 [9] = assay: as above
Vero E6 [10] = assay: as above
HepG2 [11] = assay: drug sensitivity score (DSS) for viability; higher = more toxic; extreme values may be limits of the assay
Calu-3 [12] = assay: as above
U2OS [13] = assay: as above
Caco-2 [14] = assay: as above
Vero E6 [15] = assay: as above

SMILES | relative viability EC50 (HepG2 [1]) [µM] | relative viability EC50 (Calu-3 [2]) [µM] | relative viability EC50 (U2OS [3]) [µM] | relative viability EC50 (Caco-2 [4]) [µM] | relative viability EC50 (Vero E6 [5]) [µM] | cell viability (HepG2 [6]; 1 nM) [%] | cell viability (HepG2 [6]; 10 nM) [%] | cell viability (HepG2 [6]; 100 nM) [%] | cell viability (HepG2 [6]; 1000 nM) [%] | cell viability (HepG2 [6]; 10000 nM) [%] | cell viability (Calu-3 [7]; 1 nM) [%] | cell viability (Calu-3 [7]; 10 nM) [%] | cell viability (Calu-3 [7]; 100 nM) [%] | cell viability (Calu-3 [7]; 1000 nM) [%] | cell viability (Calu-3 [7]; 10000 nM) [%] | cell viability (U2OS [8]; 1 nM) [%] | cell viability (U2OS [8]; 10 nM) [%] | cell viability (U2OS [8]; 100 nM) [%] | cell viability (U2OS [8]; 1000 nM) [%] | cell viability (U2OS [8]; 10000 nM) [%] | cell viability (Caco-2 [9]; 1 nM) [%] | cell viability (Caco-2 [9]; 10 nM) [%] | cell viability (Caco-2 [9]; 100 nM) [%] | cell viability (Caco-2 [9]; 1000 nM) [%] | cell viability (Caco-2 [9]; 10000 nM) [%] | cell viability (Vero E6 [10]; 1 nM) [%] | cell viability (Vero E6 [10]; 10 nM) [%] | cell viability (Vero E6 [10]; 100 nM) [%] | cell viability (Vero E6 [10]; 1000 nM) [%] | cell viability (Vero E6 [10]; 10000 nM) [%] | drug sensitivity score (HepG2 [11]) | drug sensitivity score (Calu-3 [12]) | drug sensitivity score (U2OS [13]) | drug sensitivity score (Caco-2 [14]) | drug sensitivity score (Vero E6 [15])
NC(=O)c1cn(Cc2c(F)cccc2F)nn1 [rufinamide] | > 10 | > 10 | > 10 | > 10 | > 10 | 109 | 102 | 94.1 | 101 | 97.4 | 101 | 97.7 | 99.1 | 101 | 100 | 99.6 | 100 | 101 | 98 | 104 | 111 | 97.4 | 93.3 | 97.1 | 104 | 101 | 101 | 101 | 97.9 | 103 | 0 | 0 | 0 | 0 | 0
O=C(CCCCCN1C(=O)c2cccc3cccc(c23)C1=O)NO [scriptaid] | 1.64 | 1.3 | 1.45 | 1.72 | 1.56 | 108 | 109 | 93 | 78.2 | 2.9 | 101 | 102 | 102 | 73.7 | 23.4 | 102 | 98.6 | 96.8 | 72.7 | 3.1 | 107 | 90.8 | 97.6 | 80 | 2.4 | 107 | 106 | 103 | 75.3 | 0.1 | 8.8 | 8 | 9.4 | 8.6 | 9.3
Clc1ccc(C(Cn2ccnc2)OCc2csc3c(Cl)cccc23)c(Cl)c1 (stereo not given) [sertaconazole] | > 10 | > 10 | > 10 | > 10 | > 10 | 116 | 96.8 | 102 | 105 | 100 | 106 | 96.1 | 106 | 95.1 | 96.1 | 94.1 | 95.4 | 98.9 | 91.4 | 88.6 | 97 | 101 | 95 | 95.6 | 85.4 | 102 | 102 | 105 | 105 | 99.5 | 0 | 0 | 0 | 0.1 | 0
CC(C)(C)C(=O)Oc1ccc(S(=O)(=O)Nc2ccccc2C(=O)NCC(=O)O)cc1 [sivelestat] | > 10 | > 10 | > 10 | > 10 | > 10 | 101 | 92.6 | 103 | 90 | 98.3 | 97.2 | 96.1 | 90.5 | 103 | 109 | 98.5 | 100 | 96.2 | 101 | 96.5 | 91 | 97 | 94.1 | 93.5 | 91.3 | 107 | 96.5 | 104 | 98.8 | 100 | 0 | 0 | 0 | 0 | 0
O=C1O[C@H]([C@@H](O)CO)C([O-])=C1O.[Na+] [sodium-ascorbate] | > 10 | > 10 | > 10 | > 10 | > 10 | 96.8 | 104 | 92.1 | 110 | 111 | 100 | 102 | 97 | 98.5 | 102 | 97.9 | 89.9 | 101 | 97.7 | 103 | 91.7 | 93.1 | 98.9 | 95.2 | 102 | 97.5 | 107 | 97.2 | 100 | 106 | 0 | 0 | 0 | 0 | 0
O=C1NCN(c2ccccc2)C12CCN(CC1COc3ccccc3O1)CC2 (stereo not given) [spiroxatrine] | > 10 | > 10 | > 10 | > 10 | > 10 | 87.5 | 94.3 | 87.6 | 104 | 103 | 98.3 | 99 | 92 | 100 | 104 | 106 | 98 | 99.3 | 94.8 | 99 | 95.2 | 101 | 101 | 100 | 98.2 | 103 | 99.8 | 104 | 97.9 | 109 | 0 | 0 | 0 | 0 | 0
OC[C@H]1O[C@H](O[C@]2(CCl)O[C@H](CCl)[C@@H](O)[C@@H]2O)[C@H](O)[C@@H](O)[C@H]1Cl [sucralose] | > 10 | > 10 | > 10 | > 10 | > 10 | 99.1 | 97.7 | 96.8 | 96.2 | 97 | 99.6 | 91.8 | 98.5 | 99.1 | 95.5 | 102 | 100 | 103 | 96 | 103 | 96.8 | 94.1 | 99.1 | 95.9 | 101 | 100 | 102 | 101 | 106 | 92.7 | 0 | 0 | 0 | 0 | 0
Nc1ccc(S(=O)(=O)NC(=O)c2ccccc2)cc1 [sulfabenzamide] | > 10 | > 10 | > 10 | > 10 | > 10 | 109 | 102 | 99 | 103 | 109 | 109 | 101 | 96.8 | 106 | 106 | 94.7 | 93.9 | 102 | 98.1 | 103 | 92.3 | 104 | 100 | 100 | 108 | 97.4 | 95.4 | 92.1 | 96.7 | 105 | 0 | 0 | 0 | 0 | 0
Cc1cccc(Oc2cnc(=O)[nH]c2)c1 [tolimidone] | > 10 | > 10 | > 10 | > 10 | > 10 | 111 | 95.4 | 80.8 | 94.1 | 98 | 108 | 93.8 | 92.2 | 99.7 | 95.8 | 103 | 98.4 | 103 | 99.9 | 104 | 111 | 95.7 | 94.8 | 95.9 | 102 | 108 | 95.4 | 90.3 | 95.7 | 91.2 | 0 | 0 | 0 | 0 | 0
Nc1ccn([C@H]2C[C@H](O)[C@@H](CO)O2)c(=O)n1 [torcitabine] | > 10 | > 10 | > 10 | > 10 | > 10 | 105 | 94.3 | 94.6 | 104 | 98.8 | 100 | 94.6 | 91.9 | 99.9 | 85.6 | 102 | 106 | 99.1 | 104 | 95.5 | 105 | 95 | 101 | 97.1 | 86.5 | 104 | 95.7 | 90.2 | 95.2 | 101 | 0 | 0 | 0 | 0.3 | 0
CCCCNc1c(C(=O)OCC)c(C)nc2c1cnn2CC [tracazolate] | > 10 | > 10 | > 10 | > 10 | > 10 | 97.6 | 104 | 92.5 | 106 | 99.3 | 101 | 85.1 | 98.6 | 102 | 86.4 | 101 | 93.2 | 102 | 97.7 | 93.6 | 93.3 | 96.1 | 97.2 | 92.7 | 101 | 93 | 97.7 | 96.9 | 96.7 | 96.5 | 0 | 0.1 | 0 | 0 | 0
O=C(Nc1ccc(Br)cc1)c1cc(Br)cc(Br)c1O [tribomsalan] | > 10 | > 10 | > 10 | > 10 | > 10 | 102 | 104 | 94.5 | 99.7 | 82.7 | 94.4 | 92.2 | 93.2 | 102 | 91.2 | 96.6 | 98 | 96 | 102 | 96.4 | 90.7 | 90.3 | 94.7 | 105 | 76.3 | 93.5 | 100 | 91.1 | 93.7 | 98.6 | 0.4 | 0 | 0 | 0.6 | 0
O=c1c2ccccc2oc2ccccc12 [xanthone] | > 10 | > 10 | > 10 | > 10 | > 10 | 108 | 93.8 | 93.5 | 110 | 93.6 | 95.3 | 96.5 | 103 | 104 | 104 | 101 | 94.9 | 99 | 97.9 | 100 | 102 | 98.6 | 101 | 95.1 | 106 | 104 | 100 | 101 | 99.1 | 95.9 | 0 | 0 | 0 | 0 | 0
C=CCCCCCCCCC(=O)[O][Zn][O]C(=O)CCCCCCCCC=C [zinc-undecylenate] | > 10 | > 10 | > 10 | > 10 | > 10 | 102 | 98.8 | 99.3 | 100 | 92 | 95.7 | 100 | 101 | 95.6 | 116 | 97.7 | 98.8 | 98.4 | 95.1 | 99.1 | 94.4 | 96.3 | 98.2 | 96.6 | 86.9 | 105 | 95.9 | 94.8 | 98.5 | 93.9 | 0 | 0 | 0 | 0.3 | 0
